Results on two compounds are retold here after ChEMBL document CHEMBL5537113, “Discovery of 1,2-diaryl-3-oxopyrazolidin-4-carboxamides as a new class of MurA enzyme inhibitors and characterization of their antibacterial activity” (Eur J Med Chem, 2023).

SMILES strings stand for the structures. Calls of active or inactive are those of the source. The rule behind the calls is not given here.

The test system of test [1] is Escherichia coli. Description: Antibacterial activity against Escherichia coli harboring tolC deletion mutant assessed as reduction in microbial growth incubated for 16 hrs by serial dilution method. The format is functional.
The target of test [2] is T1, UDP-N-acetylglucosamine 1-carboxyvinyltransferase (Escherichia coli K-12, UniProt P0A749). Kind of test: Inhibition of Escherichia coli K12 His-tagged MurA expressed in Escherichia coli BL21 cells using UNAG as substrate pre incubated for 15 mins followed by substrate addition and measured after 15 mins by microplate reader analysis.
Test [3] concerns UDP-N-acetylglucosamine 1-carboxyvinyltransferase (Escherichia coli K-12), P0A749 [C115D]. Description: Inhibition of Escherichia coli MurA C115D mutant using UNAG as substrate pre incubated for 15 mins followed by substrate addition and measured after 15 mins by microplate reader analysis. To be noted: time 30.0 min.
Test [4] concerns Staphylococcus aureus. Kind of test: Antibacterial activity against Staphylococcus aureus Newman D2C NCTC 10833 assessed as reduction in microbial growth incubated for 16 hrs by serial dilution method. The format is functional.
Test [5] concerns Bacteria. Description: Binding affinity to wild type U15-N labelled MurA (unknown origin) expressed in Escherichia coli at 500 uM using UNAG as substrate incubated for 90 to 150 mins by 15N-1H-HSQC NMR analysis. To be noted: time 90-150 min.
The test system of test [6] is Bacillus subtilis. Description: Antibacterial activity against Bacillus subtilis ATCC 6633 assessed as reduction in microbial growth incubated for 16 hrs by serial dilution method. The class given is functional.
Test [7] deals with Staphylococcus aureus. Description: Antibacterial activity against Staphylococcus aureus Newman assessed as reduction in microbial growth incubated for 16 hrs by serial dilution method. The class given is functional.
For test [8], the target named is T1, UDP-N-acetylglucosamine 1-carboxyvinyltransferase. Description: Inhibition of Escherichia colo K12 His-tagged MurA expressed in Escherichia coli BL21 cells using UNAG as substrate pre incubated for 10 mins followed by substrate addition and measured after 30 mins by microplate reader analysis.

T1 sequence (P0A749 whole entry): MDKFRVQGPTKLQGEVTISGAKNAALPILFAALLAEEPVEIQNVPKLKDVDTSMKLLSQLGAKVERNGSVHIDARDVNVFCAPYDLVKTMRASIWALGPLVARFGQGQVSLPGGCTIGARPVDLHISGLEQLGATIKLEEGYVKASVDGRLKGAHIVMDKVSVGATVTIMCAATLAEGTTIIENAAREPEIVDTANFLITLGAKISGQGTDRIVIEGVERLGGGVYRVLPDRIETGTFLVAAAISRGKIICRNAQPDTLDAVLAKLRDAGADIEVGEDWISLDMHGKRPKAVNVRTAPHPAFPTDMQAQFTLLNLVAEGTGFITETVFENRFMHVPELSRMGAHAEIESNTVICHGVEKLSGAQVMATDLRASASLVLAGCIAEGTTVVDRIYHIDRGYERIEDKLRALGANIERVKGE
UDP-N-acetylglucosamine 1-carboxyvinyltransferase (Escherichia coli K-12), P0A749 [C115D], sequence (P0A749 whole entry C115D): as the sequence (P0A749 whole entry) above, with C115D counted along it

In general, MIC refers to the least concentration at which growth counts as inhibited. What is called IC50 is the midpoint of a concentration-inhibition curve. Low readings indicate higher potency, high ones lower potency. As for `C[C@@H]1O[C@@H]1P(=O)(O)O` [FOSFOMYCIN], the figures for the MIC in test [1] and in test [4] were 89 µM and 17 µM, respectively. Half-maximal inhibition in test [2] (IC50) required 6.7 µM. Moreover, the inhibition result in test [3] is “inactive”. In test [5], the result was Active.

With `O=C1/C(=N\O)CN(c2cccc(Cl)c2)N1c1cccc(Cl)c1`, the MIC in test [1] was 4 µg/mL; in test [6], 10 µg/mL; in test [7] it was 20 µg/mL. 88.1 µM corresponded to half-maximal inhibition in test [8] (IC50).
